Values quoted from earlier work as cited in US11571373B2, “Skin care preparations for babies” (priority 2015, dated 2023).

Experiments:
[1] = species and route not given
[2] = system: rat
[3] = in vivo

[O-2].[Zn+2] [Zinc oxide (CI 77947), Zinc oxide]
solubility in water: 0.00016 g/100 ml water

C12-C13 Pareth-4
The actual or estimated LD50 value [1]: 2,000 mg/kg body weight

Disodium Laureth Sulfosuccinate
The actual or estimated LD50 value [1]: 5,000 mg/kg body weight

Sodium Cocoamphoacetate
The actual or estimated LD50 value [1]: 14,859 mg/kg body weight | Oral LD50 value (rat) [2]: 14,859 mg/kg

Tocopherol
average absorption [3]: 40-60% | share transported via the lymphatic system into the bloodstream [3]: About 90% | extent of oral absorption ([3]; po): 20-80%
